Like-named read-outs stand apart in the source and are kept apart here.
Key:
[1] = molecular target: T1, IKur (ultra-rapidly-activating delayed rectifier K^+ current) (Homo sapiens, UniProt P22460); assay: Voltage-clamp measurement of IKur in isolated human atrial myocytes; type: cell-based; details: rested state block, first pulse; 150 ms pulses to +40 mV from -50 mV; room temperature (22-24° C); read-out: Rested State IC50, IKur in Human Atrium
T1 construct: isolated human atrial myocytes; from tissue; host or cells: isolated myocytes from human right atrial appendage
Description: J. Physiol. […] All tissues were collected in accordance with Temple University School of Medicine Institutional guidelines. […] Tissue samples were quickly immersed in cold (0-4° C.) cardioplegia solution containing (in mM/L): 50 KH2 PO4, 8 MgSO4, 10 NaHCO3, 5 adenosine, 25 taurine, 140 glucose, and 100 mannitol, pH 7.4 and bubbled with 100% O2. […] The tissue was gently agitated by continuous bubbling with 100% O2 for 5 min. […] The supernatant was removed after 40 min and discarded. The chunks were then incubated in a solution of the same ionic composition but supplemented with only collagenase and […] CaCl2. Microscopic examination of the medium was performed every 10-20 min to determine the number and quality of isolated cells. […] The supernatant was collected in a 50 ml centrifuge tube. […] Cells were used within 2-24 hr after isolation.
A small aliquot of the solution containing the isolated human atrial myocytes was placed in a 1-ml chamber mounted on the stage of an inverted microscope. Five minutes were allowed for cell adhesion to the bottom of the chamber. To record IKur, human atrial myocytes were superfused with a solution of the same ionic composition as that used for Kv1.5. An alternative external solution was sometimes used in which NaCl was replaced with NMDG (formal name: N-methyl-d-glucamine) to inhibit INa.
The amplitude of IKur was measured as the amplitude of the time-dependentcurrent at the end of the test pulse, relative to the holding current level. […] All experiments were performed at room temperature (22-24° C.).

[2] = tested on: IK1 (inward rectifier K^+ current); assay: Voltage-clamp measurement of IK1 in guinea pig ventricular myocytes; type: cell-based
Description: (§1) Guinea pig ventricular myocytes were isolated using a modification of the procedure described by Mitra et al., Am. J. Physiol. 249:H1056-60 (1985). Excised hearts were perfused through the aorta (retrograde fashion) at a rate of 10 ml/min with oxygenated, warmed (37° C.) solutions described below. The heart was initially perfused for 7 minutes with a Tyrode's solution containing, (in mM): 132 NaCl, 4 KCl, 1.2 MgCl2, 10 HEPES, 5 glucose, pH=7.2. The heart was then perfused with the same nominally Ca^2+ -free solution containing 150 units/ml Type II collagenase (Worthington) and 0.5 units/ml Type XIV protease (Sigma) for 8 minutes. This perfusate was followed by a Tyrode's solution containing 0.2 mM CaCl2 (without enzymes) for 5 minutes. The digested ventricles were cut into small pieces and gently shaken until cells were visibly dispersed. The cells were stored at room temperature until use, within 8 hours after isolation.
(§2) The suction microelectrode technique described by Giles, W. R. and Shibata, E. F., "Voltage clamp of bull-frog cardiac pacemaker cells: a quantitative analysis of potassium currents", J. Physiol. 368:265-292 (1985) was used to voltage clamp the cells. Microelectrodes were made by using a two stage puller from square bore (1.0 mm o.d.) borosilicate capillary tubing. Pipettes were filled with 0.5 M K gluconate, 25 mM KCl and 5 mM K2 ATP. The electrodes had resistances of 3 to 7 M.OMEGA. when filled with this solution. After establishing whole-cell recording mode, negative pressure was maintained on the pipette using a 1 ml gas-tight syringe attached via air tight tubing to the suction port of the microelectrode holder. This minimized dialysis of the cell with the pipette solution.
(§3) To record K^+ currents, the cells were bathed in a Ca^2+ -free Tyrode's solution containing […]. […] To record Ca^2+ currents, the cells were bathed in Tyrode's solution containing 1.8 mM Ca^2+ without nisoldipine. The cell chamber was superfused with solutions at a rate of 1-2 ml/minute, while maintaining the temperature at 35±1° C. A List EPC-7 clamp amplifier was used to voltage clamp the isolated cells. […] (Sanguinetti M. C. and Jurkiewicz, N. K., "Two components of cardiac delayed rectifier K^+ current: Differential sensitivity to block by Class III antiarrhythmic agents", J. Gen Physiol 1990; 96:194-214.) Data was analyzed as % block from control membrane currents.
(§4) Nisoldipine was prepared as a 4 mM stock solution in polyethylene glycol 200. […] At the final concentrations used neither polyethylene glycol 200 nor dimethyl sulfoxide had any effect on any of the measured membrane currents.
(§5) Selectivity for block of cardiac K^+ channels, IK1, IKr, and IKs was determined as previously described in guinea pig ventricular myocytes (U.S. Pat. No. 5,428,031).

[3] = molecular target: T2, IKs (slowly activating delayed rectifier K^+ current) (Cavia porcellus, UniProt O70344); assay: Voltage-clamp measurement of IKs in guinea pig ventricular myocytes; type: cell-based; details: read-out: % Block (Guinea Pig Ventricle) IKs
T2 construct: Guinea pig ventricular myocytes were isolated; from tissue; host or cells: isolated guinea pig ventricular myocytes
Description: as §1, §2, §3, §4, §5

T1 sequence (P22460 whole entry): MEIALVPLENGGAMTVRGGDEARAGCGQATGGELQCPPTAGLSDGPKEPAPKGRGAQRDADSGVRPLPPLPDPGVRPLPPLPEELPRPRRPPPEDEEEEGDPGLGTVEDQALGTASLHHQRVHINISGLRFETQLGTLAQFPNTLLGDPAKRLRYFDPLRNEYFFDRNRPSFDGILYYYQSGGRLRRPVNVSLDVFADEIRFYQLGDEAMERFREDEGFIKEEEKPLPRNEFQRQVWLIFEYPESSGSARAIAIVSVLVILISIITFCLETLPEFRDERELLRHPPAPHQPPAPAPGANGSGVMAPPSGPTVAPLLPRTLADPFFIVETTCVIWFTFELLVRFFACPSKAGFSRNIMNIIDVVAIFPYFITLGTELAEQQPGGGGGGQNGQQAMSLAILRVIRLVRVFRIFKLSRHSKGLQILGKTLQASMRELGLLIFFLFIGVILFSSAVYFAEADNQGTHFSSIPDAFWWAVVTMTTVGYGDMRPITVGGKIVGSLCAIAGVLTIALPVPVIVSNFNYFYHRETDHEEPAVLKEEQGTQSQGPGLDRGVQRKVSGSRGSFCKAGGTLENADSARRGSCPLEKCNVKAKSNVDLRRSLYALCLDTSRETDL
T2 sequence (O70344 whole entry): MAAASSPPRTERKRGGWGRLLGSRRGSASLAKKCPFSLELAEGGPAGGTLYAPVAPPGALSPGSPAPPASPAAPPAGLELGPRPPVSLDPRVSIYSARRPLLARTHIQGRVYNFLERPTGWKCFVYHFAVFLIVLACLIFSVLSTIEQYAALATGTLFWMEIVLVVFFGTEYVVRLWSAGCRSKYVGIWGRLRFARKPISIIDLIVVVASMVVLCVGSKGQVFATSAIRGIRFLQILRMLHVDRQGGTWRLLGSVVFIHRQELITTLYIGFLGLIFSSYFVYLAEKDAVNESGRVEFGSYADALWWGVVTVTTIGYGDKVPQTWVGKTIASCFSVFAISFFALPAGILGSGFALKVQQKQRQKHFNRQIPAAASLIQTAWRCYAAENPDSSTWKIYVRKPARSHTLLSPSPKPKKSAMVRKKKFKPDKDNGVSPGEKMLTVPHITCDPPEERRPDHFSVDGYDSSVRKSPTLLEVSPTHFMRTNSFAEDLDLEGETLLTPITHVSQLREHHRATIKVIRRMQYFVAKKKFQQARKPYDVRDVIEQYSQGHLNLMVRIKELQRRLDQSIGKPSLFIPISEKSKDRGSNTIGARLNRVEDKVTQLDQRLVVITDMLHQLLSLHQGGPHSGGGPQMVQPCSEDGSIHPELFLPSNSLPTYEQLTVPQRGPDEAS
T2 sequence (Q60409 whole entry partner): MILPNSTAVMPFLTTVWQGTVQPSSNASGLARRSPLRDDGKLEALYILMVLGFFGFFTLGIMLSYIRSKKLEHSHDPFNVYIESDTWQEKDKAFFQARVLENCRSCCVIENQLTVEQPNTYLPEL
Description for atrial flutter: In this model, atrial flutter was induced following a Y-shaped surgical lesion comprised of an intercaval incision and a connecting incision across the right atrium. […] Bipolar electrodes also were sutured to the left ventricle for measurement of ventricular excitation threshold (VET) and ventricular relative (VRRP at 2× VET) and effective refractory periods (VERP at 10×VET). The following cardiac electrophysiologic parameters also were measured before test agent administration and at the termination of the study: AH interval, an index of AV nodal conduction; HV interval, an index of His-ventricular conduction time; P-A interval, an index of intra-atrial conduction; and H-EG interval, an index of ventricular conduction; and paced ECG QT interval. AV nodal functional refractory period (AVNFRP) and SA conduction time (SACT) were determined by the introduction of atrial extrastimuli during sinus rhythm, and the monitoring of ventricular response. Electrocardiographic intervals were determined during sinus rhythm; the rate-corrected ECG QTc interval was calculated as: QTc=QT (msec)/√R-R (sec).
Sustained atrial flutter was initiated in three dogs by electrical burst pacing (6-20 Hz) of the atria; atrial rates ranged from 440-530 cycles/min.

Row | SMILES | IC50 [1] | % Block (Guinea Pig Ventricle) IK1 ([2]; @ 3 μM) | inhibition at 3 µM [3] | atrial effective refractory period, post-treatment (atrial flutter; at doses effective in terminating atrial arrhythmia, increase from 138±5 msec pretreatment) | effect on atrioventricular nodal or ventricular function (atrial flutter; dog, in vivo) | time to termination of atrial arrhythmia after test agent administration (atrial flutter; i.v. bolus 3 mg/kg (two dogs) or 10 mg/kg (third dog)) | atrial rate during atrial flutter (atrial flutter; i.v. bolus 3 mg/kg (two dogs) or 10 mg/kg (third dog), initial rates 440-530 cycles/min) | termination of atrial arrhythmia (atrial flutter; i.v. bolus 3 mg/kg, in two of three dogs) | termination of atrial arrhythmia (atrial flutter; i.v. bolus 10 mg/kg, in the third of three dogs) | % Block (Guinea Pig Ventricle) IK1 ([2]; @ 10 μM) | inhibition at 10 µM ([3]; @ 10 μM)
1 | COc1ccc(-n2nc(Sc3ccc(C)cc3)c(C)c(C#N)c2=O)cc1 [Compound B] | 80 nM | 4.4% | 13.6% | – | – | – | – | – | – | – | –
2 | Cc1cc(C)c(CP(=O)(c2ccccc2)c2ccccc2)c(-c2ccc(F)c(C)c2)c1 [Compound C, 2-(Diphenylphosphinylmethyl)-4'-fluoro-3,5,3'-trimethyl-biphenyl] | 780 nM | 15.1% | 12.2% | 153 ± 8 ms | no indication of effect on atrioventricular nodal or ventricular function | 10 to 120 s | slowed atrial rate | terminated the atrial arrhythmia | terminated the atrial arrhythmia | – | –
3 | COc1ccc(-n2nc(Sc3ccc(Cl)cc3)c(C)c(C#N)c2=O)cc1 [Compound A, 6-(4-Chlorophenylthio)-2-(4-methoxyphenyl)-5-methyl-3-oxo-2,3-dihydropyridazine-4-carbonitrile] | 230 nM | – | – | – | – | – | – | – | – | 6% | 4%
